Source: article PMC5451423, “Pharmacokinetic Evaluation of Empagliflozin in Healthy Egyptian Volunteers Using LC-MS/MS and Comparison with Other Ethnic Populations” (Scientific Reports, 2017)
Read-outs that look alike come from different tables or passages of the source.

Legend:
[1] = Single oral dose pharmacokinetic study of EG in healthy Egyptian volunteers (LC-MS/MS of plasma); format: in vivo, human; settings: one JARDIANCE tablet 25 mg EG; for Cmax, Mean ± S.D. (% C.V.): n=6, fasting, single oral dose
Procedure: Each EG calibrator and quality control (QC) plasma sample (980 µL) was spiked with 20 µL containing the appropriate amount of EG in acetonitrile prepared with dilution of EG working solution. All samples including the volunteers’ plasma samples (1 mL plasma) were spiked with 100 µL of IS that contained 100 ng of DG followed by vortexing for 20 sec. Five milliliters of TBME were added, vortexed for 1 min, and centrifuged for 30 min at 6000 rpm. Four milliliters of the organic layer were vacuum evaporated until dryness at 60 °C. Three hundred microliters of acetonitrile were added to reconstitute the resulting residue and vortexed for 3 min. Ten microliters of the reconstituted solution were injected into the LC-MS/MS system.
The pharmacokinetic parameters of EG were studied in healthy human subjects according to the ethical regulations of World Medical Association Declaration of Helsinki (October 1996) and the International Conference of Harmonization Tripartite Guideline for Good Clinical Practice. Written informed consent was provided by each volunteer before enrollment. Approval of the study by the ethical committee was mandatory according to the Egyptian ministry of Health and The British University in Egypt research ethics guidelines. The experimental protocols were approved by the ethics committee of the Faculty of Pharmacy, The British University in Egypt. The clinical trial protocol was registered in a publically accessible primary register that participates in the WHO International Clinical Trial Registry Platform (ClinicalTrials.gov, 16/02/2017, ID: NCT03059056). Good health of the human subjects was confirmed with a complete medical history and physical examination. Fasting of all volunteers eliminated the possible interaction from high fat meals. The evaluation of safety of the study was based on monitoring of blood glucose level, vital signs, pulse rate, monitoring of adverse events, and physical examination. Samples from 6 healthy, adult, male, Egyptian volunteers (age: 22–33 years, average weight: 77.8 kg, average body mass index (BMI): 29.2) were collected at 0, 0.5, 1, 1.5, 2, 3, 4, 8 and 12 hrs, transferred to heparinized centrifuge tubes and analyzed with the proposed method after single oral dose administration of one JARDIANCE tablet nominally containing 25 mg EG. Blood samples (3 mL of each sample) were centrifuged at 3000 rpm for 5 min, 1 mL of the plasma was separated and spiked with 100 µL (equivalent to 100 ng) of IS working solution, and then the procedure discussed under (Sample preparation) was applied. The main pharmacokinetic parameters of the study, Cmax, Tmax, t1/2, elimination rate constant, AUC0-t and AUC0-inf, were estimated using validated Excel software. Blood glucose level was determined for all volunteers at 0 and 1.5 hrs to monitor any hypoglycemic effect. The study was conducted as per FDA guidelines.

[2] = Monitoring of blood glucose level of volunteers (hypoglycemic effect); format: in vivo, human; settings: healthy Egyptian volunteers, 25 mg EG single oral dose, determined at 0 and 1.5 hrs
Source text: The pharmacokinetic parameters of EG were studied in healthy human subjects according to the ethical regulations of World Medical Association Declaration of Helsinki (October 1996) and the International Conference of Harmonization Tripartite Guideline for Good Clinical Practice. Written informed consent was provided by each volunteer before enrollment. Approval of the study by the ethical committee was mandatory according to the Egyptian ministry of Health and The British University in Egypt research ethics guidelines. The experimental protocols were approved by the ethics committee of the Faculty of Pharmacy, The British University in Egypt. The clinical trial protocol was registered in a publically accessible primary register that participates in the WHO International Clinical Trial Registry Platform (ClinicalTrials.gov, 16/02/2017, ID: NCT03059056). […] Samples from 6 healthy, adult, male, Egyptian volunteers (age: 22–33 years, average weight: 77.8 kg, average body mass index (BMI): 29.2) were collected at 0, 0.5, 1, 1.5, 2, 3, 4, 8 and 12 hrs, transferred to heparinized centrifuge tubes and analyzed with the proposed method after single oral dose administration of one JARDIANCE tablet nominally containing 25 mg EG. […] Blood glucose level was determined for all volunteers at 0 and 1.5 hrs to monitor any hypoglycemic effect. […]

[3] = white German subjects, cited from earlier work
[4] = parameters: method as in PMID 25199997; settings: Japanese subjects, Group 1, n=8, 25 mg empagliflozin; cited from earlier work
[5] = parameters: method as in PMID 26101175; settings: Chinese subjects, Group 2, n=9, 25 mg empagliflozin; cited from earlier work
[6] = parameters: method as in PMID 23859534; settings: glucuronidation is the major metabolic pathway; cited from earlier work

SMILES: OC[C@H]1O[C@@H](c2ccc(Cl)c(Cc3ccc(O[C@H]4CCOC4)cc3)c2)[C@H](O)[C@@H](O)[C@@H]1O [Empagliflozin]
- k el ([1]; male, human, plasma, n=6, single oral dose, read-out: Elimination rate constant, Mean ± S.D. (% C.V.) (converted)): 2.78e-05 s⁻¹
- half-life ([1]; male, human, plasma, n=6, single oral dose, read-out: t 1/2, Mean ± S.D. (% C.V.) (converted)): 6.1 ± 1.2 h
- Cmax, Mean ± S.D. (% C.V.) ([1]; plasma): 576 ± 86 (14.93) nMol/L
- Cmax, Mean ± S.D. (% C.V.) ([1]; plasma, listed as empagliflozin): 576 nmol/L
- AUC0-inf, Mean ± S.D. (% C.V.) ([1]; n=6, single oral dose): 4103 ± 427 (10.41) nMol.h/L
- AUC0−t (12), Mean ± S.D. (% C.V.) ([1]; n=6, single oral dose, 0-12 h): 2806 ± 234 (8.34) nMol.h/L
- AUC0-inf, Mean ± S.D. (% C.V.) ([1]; n=6, single oral dose, listed as empagliflozin): 4103 nmol·h/L
- blood glucose level of all volunteers [2]: in the normal range
- AUC0-inf, Mean ([3]; Group 1, n=6, 25 mg EG): 3.83 µM·h
- Cmax, Mean ([3]; Group 1, n=6, 25 mg EG): 505 nM
- AUC0-inf, Mean ([3]; Group 2, n=18, 25 mg EG): 4.77 µM·h
- Cmax, Mean ([3]; Group 2, n=18, 25 mg EG): 610 nM
- AUC0-inf, Mean ([3]; Group 3, n=9, 25 mg EG): 4.31 µM·h
- Cmax, Mean ([3]; Group 3, n=9, 25 mg EG): 606 nM
- AUC0-inf, Mean ([3]; Group 4, n=9, 25 mg EG): 4.99 µM·h
- Cmax, Mean ([3]; Group 4, n=9, 25 mg EG): 630 nM
- AUC0-inf, Mean [4]: 7.56 µM·h
- Cmax, Mean [4]: 1070 nM
- AUC0-inf, Mean [5]: 7.45 µM·h
- Cmax, Mean [5]: 1130 nM
- metabolites detected in human plasma [6]: no major metabolites
